Eight compounds from PubChem BioAssay (NCI) can be followed below.

Test systems include 786-0 renal; EKVX NSCLC; HCT-116 colon; HS 578T breast; HT29 colon; KM12 colon; LOX IMVI melanoma; OVCAR-3 ovarian; SK-MEL-5 melanoma; UO-31 renal.
Holding throughout (test): NCI-60 cell line screen, 48 h

Values joined by “and” are separate entries in the source; they are usually repeats but may differ in a detail not shown here. Equal entries are not always repeated.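 Briefly, cells in 96-well plates were exposed to five compound concentrations for 48 h, and endpoints were estimated by linear interpolation. GI50 marks 50% less growth. Definition used: TGI = concentration required for complete inhibition of growth.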

For `CN(C)c1ccccc1[CH2][Ga]([Cl])[CH2]c1ccccc1N(C)C`, the GI50 is 1.38 µM with 786-0 renal; 0.794 µM in the assay with EKVX NSCLC; 0.833 µM with HCT-116 colon; 1.28 µM in the assay with HS 578T breast; 0.583 µM in the assay with HT29 colon; 0.635 µM in the assay on KM12 colon. Further, the GI50 was 1.13 µM in the assay with LOX IMVI melanoma, 1.4 µM with OVCAR-3 ovarian and 1.22 µM in the assay with SK-MEL-5 melanoma. Besides, the TGI worked out at 2.8 µM with 786-0 renal; 2.24 µM in the assay on EKVX NSCLC; 2.17 µM with HCT-116 colon; 5.79 µM in the assay on HS 578T breast; 2.82 µM with HT29 colon; 2.24 µM with KM12 colon. Besides, the results for the TGI with LOX IMVI melanoma, in the assay on OVCAR-3 ovarian and in the assay on SK-MEL-5 melanoma were 3.18 µM, 3.65 µM and 2.49 µM, respectively.
Consider `O=C(O)Cc1ccc(N=Nc2c(O)c(C(=O)O)cc3ccccc23)cc1`, for which the TGI with 786-0 renal, with EKVX NSCLC, in the assay on HCT-116 colon, in the assay with HS 578T breast, in the assay on HT29 colon and in the assay with KM12 colon was greater than 100 µM each time. Further, the TGI in the assay with OVCAR-3 ovarian, in the assay with SK-MEL-5 melanoma and in the assay with UO-31 renal was greater than 100 µM throughout.
Regarding `O=C(c1ccccc1)c1nc2ccc(C(F)(F)F)cc2nc1N1CCN(c2ccccc2)CC1`, the GI50 in the assay with 786-0 renal was 30.7 µM; in the assay on EKVX NSCLC it was 79.3 µM; in the assay with HCT-116 colon, 24.7 µM; in the assay on HS 578T breast, 65 µM; in the assay with KM12 colon, 95.1 µM; with LOX IMVI melanoma it was 18.5 µM. The GI50 with OVCAR-3 ovarian is 19.3 µM; in the assay on SK-MEL-5 melanoma, 15.9 µM; in the assay on UO-31 renal, 31.7 µM. Also, the TGI was 76.1 µM in the assay on 786-0 renal; greater than 100 µM in the assay with EKVX NSCLC; 53.7 µM with HCT-116 colon; greater than 100 µM with HS 578T breast; greater than 100 µM with KM12 colon; 38.4 µM with LOX IMVI melanoma. For the same compound, the TGI was 39.5 µM in the assay with OVCAR-3 ovarian, 32.7 µM in the assay on SK-MEL-5 melanoma and greater than 100 µM in the assay with UO-31 renal.
With `O=C1CC(CC(OCc2ccccc2)C(OCc2ccccc2)C(COCc2ccccc2)OCc2ccccc2)CC(=O)N1` (centres undefined), the GI50 is > 100 µM and 11 µM with 786-0 renal; > 100 µM and 12.5 µM with EKVX NSCLC; > 100 µM and 16.5 µM in the assay with HS 578T breast; > 100 µM and 10.7 µM with LOX IMVI melanoma; > 100 µM and 12.2 µM with OVCAR-3 ovarian; > 100 µM and 12.6 µM in the assay with SK-MEL-5 melanoma. Also, the TGI in the assay on 786-0 renal was > 100 µM and 49.3 µM; with EKVX NSCLC, greater than 100 µM; in the assay with HCT-116 colon it was > 100 µM and 34.2 µM; in the assay with HS 578T breast it was > 100 µM and 33.9 µM; in the assay on HT29 colon, 18 µM; in the assay with KM12 colon, > 100 µM and 21.3 µM. In addition, the TGI was > 100 µM and 22.5 µM in the assay on LOX IMVI melanoma; > 100 µM and 44 µM with OVCAR-3 ovarian; > 100 µM and 25.6 µM in the assay on SK-MEL-5 melanoma.
For the compound `CN1CCN(CCCN2c3ccccc3Sc3ccc(Cl)cc32)CC1`, the GI50 is 6.15 µM and 38 µM with 786-0 renal; 5.46 µM with EKVX NSCLC; 5.15 µM and 39.9 µM in the assay on HCT-116 colon; 4.75 µM in the assay with LOX IMVI melanoma; 5.94 µM and 55.2 µM in the assay on OVCAR-3 ovarian; 48.5 µM in the assay on SK-MEL-5 melanoma. For the same compound, the TGI in the assay on 786-0 renal was 12.8 µM and 61.4 µM; with EKVX NSCLC it was 12.4 µM; in the assay on HCT-116 colon, 12 µM and 54.2 µM; with HS 578T breast it was 13.5 µM and 83.2 µM; in the assay with KM12 colon, 12.4 µM and 95.2 µM; with LOX IMVI melanoma, 11.6 µM. Moreover, the TGI was found to be 12.8 µM with OVCAR-3 ovarian, 62 µM in the assay on SK-MEL-5 melanoma and 9.49 µM with UO-31 renal.
In the case of `Nc1ncn([C@H]2C[C@H](OP(=O)(O)OC[C@H]3O[C@@H](n4cnc5c(=O)[nH]c(N)nc54)C[C@@H]3O)[C@@H](CO)O2)c(=O)n1`, the GI50 in the assay with 786-0 renal is 71.8 µM; in the assay with EKVX NSCLC, greater than 100 µM; with HCT-116 colon it was 23 µM; in the assay on HS 578T breast it was greater than 100 µM; in the assay on HT29 colon, 47.1 µM; with LOX IMVI melanoma it was 57 µM. The GI50 with OVCAR-3 ovarian, in the assay with SK-MEL-5 melanoma and in the assay with UO-31 renal was greater than 100 µM throughout. In addition, the TGI in the assay with 786-0 renal, with EKVX NSCLC, in the assay on HCT-116 colon, with HS 578T breast, with HT29 colon and with LOX IMVI melanoma was greater than 100 µM in each case. For the same compound, the TGI in the assay with OVCAR-3 ovarian, in the assay with SK-MEL-5 melanoma and in the assay on UO-31 renal was greater than 100 µM throughout.
Consider `COC(=O)CNc1nc(N(C)O)nc(N(C)O)n1`, for which the GI50 is 3.56 µM with 786-0 renal; 3.31 µM in the assay with EKVX NSCLC; 1.98 µM with HCT-116 colon; 8.96 µM in the assay on HS 578T breast; 6.5 µM with HT29 colon; 5.65 µM in the assay with KM12 colon. Also, the GI50 is 1.71 µM in the assay with LOX IMVI melanoma, 2.2 µM in the assay on SK-MEL-5 melanoma and 3.02 µM in the assay with UO-31 renal. The TGI was 66.8 µM in the assay with 786-0 renal; greater than 100 µM in the assay with EKVX NSCLC; greater than 100 µM in the assay on HCT-116 colon; greater than 100 µM in the assay with HS 578T breast; greater than 100 µM in the assay on HT29 colon; greater than 100 µM with KM12 colon. The TGI is greater than 100 µM in the assay on LOX IMVI melanoma, 15.9 µM in the assay on SK-MEL-5 melanoma and 50.5 µM in the assay on UO-31 renal.
In the case of `COc1cc2c(c(OC)c1OC)-c1c(c3ccc([N+](=O)[O-])cc3c(=O)n1CCCN)C2=O`, the GI50 in the assay with 786-0 renal is 0.799 µM; in the assay on EKVX NSCLC, 7.1 µM; in the assay on HCT-116 colon it was 0.828 µM; in the assay on HS 578T breast it was 11.1 µM; in the assay on KM12 colon, 6.64 µM; in the assay on LOX IMVI melanoma, 1.01 µM. In addition, the GI50 in the assay with OVCAR-3 ovarian is 10.7 µM; in the assay on SK-MEL-5 melanoma, 7.15 µM; in the assay on UO-31 renal, 0.892 µM. The TGI turned out to be 1.51 µM with 786-0 renal; 33 µM in the assay with EKVX NSCLC; 1.53 µM in the assay on HCT-116 colon; 31.4 µM in the assay with HS 578T breast; 18.1 µM in the assay on KM12 colon; 2.06 µM with LOX IMVI melanoma. In addition, the TGI in the assay with OVCAR-3 ovarian was found to be 19.1 µM; in the assay on SK-MEL-5 melanoma, 15.8 µM; in the assay with UO-31 renal, 1.68 µM.
